Measured values as given in US20210290676A1, “IMPROVING THE EFFICACY AND SAFETY OF ADOPTIVE CELLULAR THERAPIES” (University of Southern California, priority 2018, published 2021).

Tests used:
Assay type in all cases: cell-based, human
[1] = tested on: CD8+CD45RA+CCR7+CD62L+ T cells; test: Flow cytometry for CD8, CD45RA, CCR7 and CD62L on inhibitor-treated T cells; settings: for % of CD62L+CCR7+ double positive cells out of CD45RA+ cells in CD8+ T cell population: 13 days of treatment; for GATE P4 CD8(PerCP)+, CD45RA(FITC)+, CCR7 (PE)+, CD62L(APC): cells cultured for 14 days
Protocol: (§1) DAY 0: Blood was obtained from unidentified donor. After RBC lysis, PBMC were collected using Ficoll-Hypaque separation. […] T cells were cultured in three different conditions: • 1. XVIVO 15 medium (Lonza) with IL2 50 IU/ml, CD3 antibody (30 ng/ml) and CD28 antibody (30 ng/ml). • 2. XVIVO 15 medium (Lonza) with CD3 antibody (30 ng/ml) and CD28 antibody (30 ng/ml). • 3. XVIVO 15 medium (Lonza) with IL2 50 IU/ml DAY 1: Cells were plated in a 6-well plate at a density of 1 million cells in 2 ml/of media (as described above) and treated with different inhibitors
(§2) A second aliquot of the cells cultured for 13 days with all the treatments listed above (1-21) was washed with PBS+1% FBS, stained with CD8-PerCP, CD45RA-FITC, CCR7-PE and CD62L-APC (5% Y/100 μl/sample for each of 4 antibodies) at 4° C. for 1 h, washed twice with PBS+100 FBS and analyzed on flow cytometer to check if these drugs are enriching T stem cells showing surface expression of CD8+CD45RA+CCR7+CD62L+.
(§3) Day 0: Blood was obtained from unidentified donor. After RBC lysis, PBMC were collected using Ficoll-Hypaque separation. 200 million T cells were isolated from PBMCs using CD3 microbeads. T cells were cultured overnight in XVIVO 15 medium (Lonza) with IL2 (50 IU/ml), 30 ng/ml of CD3 and CD28 antibodies
(§4) Day 1: Cells were plated in 24-well plates at a density of 0.3 million cells/ml in each well and treated with different drugs.
(§5) On day 7, culture medium was replaced with fresh medium with fresh drugs.
(§6) On day 13, culture medium was replaced with fresh medium and fresh drugs. Half of the cells were transferred to 6-well plates.
as §2, with “14” for “13”, “above” for “above (1-21)”, “(5 ul/100 ul/sample” for “(5% Y/100 μl/sample”, “PBS+1%” for “PBS+100”, “enriching for” for “enriching”, “T” for “T stem”

[2] = tested on: CD45RA+CCR7+CD62L+ T cells; test: Flow cytometry for CD45RA, CCR7 and CD62L on inhibitor-treated T cells (all T cells); settings: for % of CD62L+CCR7+ double positive cells out of CD45RA+ cells in live T cell population: 13 days treatment; for GATE P6 CD45RA(FITC)+, CCR7 (PE)+, CD62L(APC): cells cultured for 14 days
Protocol: as §1, §2, §3, §4, §5, §6
as §2, with “14” for “13”, “above” for “above (1-21)”, “(5 ul/100 ul/sample” for “(5% Y/100 μl/sample”, “PBS+1%” for “PBS+100”, “enriching for” for “enriching”, “T” for “T stem”

[3] = tested on: Pgp+ (DiOC2(3)-dye effluxing) T cells; test: DiOC2(3) dye efflux flow cytometry of inhibitor-treated T cells; settings: for p2: pgp+ from Live cells: treatment for 13 days, IL2 + CD3 and CD28 antibodies
Protocol: (§7) The use of P-glycoprotein (Pgp)-mediated efflux of DiOC2(3) to isolate stem like T cells for adoptive cellular therapy has been described in application no. […] In the following examples, DiOC2(3) staining was used to study the effect of different inhibitors on generation of stem like T cells.
as §1
(§8) The cell growth medium was changed in 6-well plates and fresh drugs were added at same concentration for one more week.
(§9) […] (DAY 11): Culture medium was changed and fresh drugs were added in 6-well plates.
(§10) Subsequently, cells were washed with RPMI medium and dye was effluxed at 37° C. for 90 min. Cells were washed with […], stained with CD62L-APC (5 μl/100 μl/sample) at 4° C. for 1 h, washed twice with PBS+1% FBS and analyzed on flow cytometer to check if these drugs treatment leads to increase in Pgp+/CD62L positive population.
as §3, §4, §5, §6
(§11) Day 14: An aliquot of cells with all the treatments listed above (for 13 days) was used to stain the cells with DiOC2(3) (60 ng/ml in RPMI medium) at 4° C. for 40 min, washed with RPMI medium, DiOC2(3) dye was effluxed at 37° C. for 90 min, washed with PBS+1% FBS, stained with CD62L-APC antibody. CD62L is a marker for resting T cells. (5 μl/100 μl/sample) at 4° C. for 1 h, washed twice with PBS+1% FBS and analyzed on flow cytometer to check if these drugs are affecting the dye-effluxing or Pgp+ (i.e., DiOC2(3)-dull) T-cell population.

[4] = tested on: Pgp+ (DiOC2(3)-dye effluxing cells) and CD62L+ T cells; test: DiOC2(3) dye efflux plus CD62L-APC staining, flow cytometry of inhibitor-treated T cells; settings: for p5: double +ve pgp+ and CD62L-APC+ from Live cells: treatment for 13 days, IL2 + CD3 and CD28 antibodies
Protocol: as §7, §1, §8, §9, §10, §3, §4, §5, §6, §11

[5] = CD3-CD28-IL2 culture, inhibitor 10 nM
[6] = CD3-CD28-IL2 culture, inhibitor 100 nM
[7] = CD3-CD28-IL2 culture, inhibitor 200 nM
[8] = CD3-CD28 culture, inhibitor 10 nM
[9] = CD3-CD28 culture, inhibitor 100 nM
[10] = CD3-CD28 culture, inhibitor 200 nM
[11] = CD3-IL2 culture, inhibitor 10 nM
[12] = CD3-IL2 culture, inhibitor 100 nM
[13] = CD3-IL2 culture, inhibitor 200 nM

SMILES: CCN(c1cc(-c2ccc(CN3CCOCC3)cc2)cc(C(=O)NCc2c(C)cc(C)[nH]c2=O)c1C)C1CCOCC1 [Tazemetostat]
- % of CD62L+CCR7+ double positive cells out of CD45RA+ cells in CD8+ T cell population [1, 5]: 62.73%
- % of CD62L+CCR7+ double positive cells out of CD45RA+ cells in CD8+ T cell population [1, 6]: 83.53%
- % of CD62L+CCR7+ double positive cells out of CD45RA+ cells in CD8+ T cell population [1, 7]: 80.78%
- % of CD62L+CCR7+ double positive cells out of CD45RA+ cells in CD8+ T cell population [1, 8]: 87.00%
- % of CD62L+CCR7+ double positive cells out of CD45RA+ cells in CD8+ T cell population [1, 9]: 88.26%
- % of CD62L+CCR7+ double positive cells out of CD45RA+ cells in CD8+ T cell population [1, 10]: 88.37%
- % of CD62L+CCR7+ double positive cells out of CD45RA+ cells in CD8+ T cell population [1, 11]: 82.23%
- % of CD62L+CCR7+ double positive cells out of CD45RA+ cells in CD8+ T cell population [1, 12]: 79.86%
- % of CD62L+CCR7+ double positive cells out of CD45RA+ cells in CD8+ T cell population [1, 13]: 77.35%
- % of CD62L+CCR7+ double positive cells out of CD45RA+ cells in live T cell population [2, 5]: 50.85%
- % of CD62L+CCR7+ double positive cells out of CD45RA+ cells in live T cell population [2, 6]: 67.51%
- % of CD62L+CCR7+ double positive cells out of CD45RA+ cells in live T cell population [2, 7]: 66.36%
- % of CD62L+CCR7+ double positive cells out of CD45RA+ cells in live T cell population [2, 8]: 77.81%
- % of CD62L+CCR7+ double positive cells out of CD45RA+ cells in live T cell population [2, 9]: 79.62%
- % of CD62L+CCR7+ double positive cells out of CD45RA+ cells in live T cell population [2, 10]: 78.45%
- % of CD62L+CCR7+ double positive cells out of CD45RA+ cells in live T cell population [2, 11]: 67.30%
- % of CD62L+CCR7+ double positive cells out of CD45RA+ cells in live T cell population [2, 12]: 63.89%
- % of CD62L+CCR7+ double positive cells out of CD45RA+ cells in live T cell population [2, 13]: 59.08%
- % of Pgp+ cells out of live cells ([3]; CD3-CD28-IL2 culture, inhibitor 10 nM, 6 days of treatment): 21.86%
- % of Pgp+ cells out of live cells ([3]; CD3-CD28-IL2 culture, inhibitor 10 nM, 13 days of treatment): 30.38%
- % of Pgp+ cells out of live cells ([3]; CD3-CD28-IL2 culture, inhibitor 100 nM, 6 days of treatment): 27.17%
- % of Pgp+ cells out of live cells ([3]; CD3-CD28-IL2 culture, inhibitor 100 nM, 13 days of treatment): 38.45%
- % of Pgp+ cells out of live cells ([3]; CD3-CD28-IL2 culture, inhibitor 200 nM, 6 days of treatment): 24.85%
- % of Pgp+ cells out of live cells ([3]; CD3-CD28-IL2 culture, inhibitor 200 nM, 13 days of treatment): 41.22%
- % of Pgp+ cells out of live cells ([3]; CD3-CD28 culture, inhibitor 10 nM, 6 days of treatment): 39.28%
- % of Pgp+ cells out of live cells ([3]; CD3-CD28 culture, inhibitor 10 nM, 13 days of treatment): 12.41%
- % of Pgp+ cells out of live cells ([3]; CD3-CD28 culture, inhibitor 100 nM, 6 days of treatment): 40.50%
- % of Pgp+ cells out of live cells ([3]; CD3-CD28 culture, inhibitor 100 nM, 13 days of treatment): 5.19%
- % of Pgp+ cells out of live cells ([3]; CD3-CD28 culture, inhibitor 200 nM, 6 days of treatment): 43.11%
- % of Pgp+ cells out of live cells ([3]; CD3-CD28 culture, inhibitor 200 nM, 13 days of treatment): 11.82%
- % of Pgp+ cells out of live cells ([3]; CD3-IL2 culture, inhibitor 10 nM, 6 days of treatment): 24.77%
- % of Pgp+ cells out of live cells ([3]; CD3-IL2 culture, inhibitor 10 nM, 13 days of treatment): 28.61%
- % of Pgp+ cells out of live cells ([3]; CD3-IL2 culture, inhibitor 100 nM, 6 days of treatment): 25.31%
- % of Pgp+ cells out of live cells ([3]; CD3-IL2 culture, inhibitor 100 nM, 13 days of treatment): 16.74%
- % of Pgp+ cells out of live cells ([3]; CD3-IL2 culture, inhibitor 200 nM, 6 days of treatment): 25.89%
- % of Pgp+ cells out of live cells ([3]; CD3-IL2 culture, inhibitor 200 nM, 13 days of treatment): 28.06%
- percentage of Pgp+ cells ([3]; culture with CD3 antibody, CD28 antibody and IL2, 6 days of treatment, 10 nM): 27.17%
- % of Pgp+ CD62L+cells out of live cells ([4]; CD3-CD28-IL2 culture, inhibitor 10 nM, 6 days treatment): 8.42%
- % of Pgp+ CD62L+cells out of live cells ([4]; CD3-CD28-IL2 culture, inhibitor 10 nM, 13 days treatment): 8.03%
- % of Pgp+ CD62L+cells out of live cells ([4]; CD3-CD28-IL2 culture, inhibitor 100 nM, 6 days treatment): 13.16%
- % of Pgp+ CD62L+cells out of live cells ([4]; CD3-CD28-IL2 culture, inhibitor 100 nM, 13 days treatment): 12.57%
- % of Pgp+ CD62L+cells out of live cells ([4]; CD3-CD28-IL2 culture, inhibitor 200 nM, 6 days treatment): 11.30%
- % of Pgp+ CD62L+cells out of live cells ([4]; CD3-CD28-IL2 culture, inhibitor 200 nM, 13 days treatment): 14.25%
- % of Pgp+ CD62L+cells out of live cells ([4]; CD3-CD28 culture, inhibitor 10 nM, 6 days treatment): 19.36%
- % of Pgp+ CD62L+cells out of live cells ([4]; CD3-CD28 culture, inhibitor 10 nM, 13 days treatment): 2.95%
- % of Pgp+ CD62L+cells out of live cells ([4]; CD3-CD28 culture, inhibitor 100 nM, 6 days treatment): 18.38%
- % of Pgp+ CD62L+cells out of live cells ([4]; CD3-CD28 culture, inhibitor 100 nM, 13 days treatment): 1.18%
- % of Pgp+ CD62L+cells out of live cells ([4]; CD3-CD28 culture, inhibitor 200 nM, 6 days treatment): 20.94%
- % of Pgp+ CD62L+cells out of live cells ([4]; CD3-CD28 culture, inhibitor 200 nM, 13 days treatment): 2.66%
- % of Pgp+ CD62L+cells out of live cells ([4]; CD3-IL2 culture, inhibitor 10 nM, 6 days treatment): 8.76%
- % of Pgp+ CD62L+cells out of live cells ([4]; CD3-IL2 culture, inhibitor 10 nM, 13 days treatment): 9.87%
- % of Pgp+ CD62L+cells out of live cells ([4]; CD3-IL2 culture, inhibitor 100 nM, 6 days treatment): 10.11%
- % of Pgp+ CD62L+cells out of live cells ([4]; CD3-IL2 culture, inhibitor 100 nM, 13 days treatment): 4.31%
- % of Pgp+ CD62L+cells out of live cells ([4]; CD3-IL2 culture, inhibitor 200 nM, 6 days treatment): 11.97%
- % of Pgp+ CD62L+cells out of live cells ([4]; CD3-IL2 culture, inhibitor 200 nM, 13 days treatment): 9.08%
- percentage of Pgp+CD62L+ cells ([4]; culture with CD3 antibody, CD28 antibody and IL2, 6 days of treatment, 100 nM): 13.168%

SMILES: COc1cc2c(NC3CCN(C(C)C)CC3)nc(N3CCC(F)(F)CC3)nc2cc1OCCCN1CCCC1 [UNC0642]
- GATE P4 CD8(PerCP)+, CD45RA(FITC)+, CCR7 (PE)+, CD62L(APC) ([1]; 10 nM): 71.62%
- GATE P4 CD8(PerCP)+, CD45RA(FITC)+, CCR7 (PE)+, CD62L(APC) ([1]; 100 nM): 82.37%
- GATE P6 CD45RA(FITC)+, CCR7 (PE)+, CD62L(APC) ([2]; 10 nM): 63.95%
- GATE P6 CD45RA(FITC)+, CCR7 (PE)+, CD62L(APC) ([2]; 100 nM): 75.75%
- p2: pgp+ from Live cells ([3]; 10 nM): 22.03
- p2: pgp+ from Live cells ([3]; 100 nM): 32.51
- p5: double +ve pgp+ and CD62L-APC+ from Live cells ([4]; 10 nM): 4.46
- p5: double +ve pgp+ and CD62L-APC+ from Live cells ([4]; 100 nM): 4.81
